# Legend:
# L1210 [1] = assay: Selectivity index, ratio of IC50 for mouse L1210 cells to IC50 for mouse 4T1 cells; format: functional
# P815 [2] = assay: Cytotoxicity against mouse P815 cells expressing biotin receptor after 72 hrs by MTT assay; format: functional, cell-based; details: P815, 72 h
# 4T1 [3] = assay: Cytotoxicity against mouse 4T1 cells expressing biotin receptor after 72 hrs by MTT assay; format: functional, cell-based; details: 4T1, 72 h
# L1210 [4] = assay: Cytotoxicity against mouse L1210 cells after 72 hrs by MTT assay; format: functional, cell-based; details: L1210, 72 h
# L1210 [5] = assay: Selectivity index, ratio of IC50 for mouse L1210 cells to IC50 for mouse P815 cells; format: functional
# [6] = Antitumor activity against mouse HepS cells xenografted in mouse assessed as tumor growth inhibition at 30 ug/kg; format: functional; details: read-out: TGI
# P815 [7] = assay: Ratio of bullatacin IC50 to compound IC50 for mouse P815 cells expressing biotin receptor; format: functional
# 4T1 [8] = assay: Ratio of bullatacin IC50 to compound IC50 for mouse 4T1 cells expressing biotin receptor; format: functional
# P815 [9] = assay: Ratio of squamocin IC50 to compound IC50 for mouse P815 cells expressing biotin receptor; format: functional
# 4T1 [10] = assay: Ratio of squamocin IC50 to compound IC50 for mouse 4T1 cells expressing biotin receptor; format: functional
Compound,Ratio IC50 (L1210 [1]),IC50 (P815 [2]) [nM],IC50 (4T1 [3]) [nM],IC50 (L1210 [4]) [nM],Ratio IC50 (L1210 [5]),inhibition in vivo at 0.03 mg/kg [6] [%],Ratio IC50 (P815 [7]),Ratio IC50 (4T1 [8]),Ratio IC50 (P815 [9]),Ratio IC50 (4T1 [10])
CCCCCCCCCC[C@H](O)[C@H]1CC[C@H]([C@H]2CC[C@H]([C@@H](CCCCCCCCCC[C@@H](O)CC3=C[C@H](C)OC3=O)OC(=O)CCCC[C@@H]3SC[C@@H]4NC(=O)N[C@@H]43)O2)O1,32.62,1550,42,1370,0.88,–,–,–,–,–
CCCCCC[C@H](O)CCC[C@H](O)[C@H]1CC[C@H]([C@H]2CC[C@H]([C@@H](CCCCCCCCCCCCC3=C[C@H](C)OC3=O)OC(=O)CCCC[C@@H]3SC[C@@H]4NC(=O)N[C@@H]43)O2)O1,0.25,> 20000,2910,720,<0.036,–,–,–,–,–
CCCCCC[C@@H](CCC[C@H](OC(=O)CCCCCNC(=O)CCCC[C@@H]1SC[C@@H]2NC(=O)N[C@@H]21)[C@H]1CC[C@H]([C@H]2CC[C@H]([C@H](O)CCCCCCCCCCCCC3=C[C@H](C)OC3=O)O2)O1)OC(=O)CCCCCNC(=O)CCCC[C@@H]1SC[C@@H]2NC(=O)N[C@@H]21,0.63,> 20000,1870,1180,<0.059,–,–,–,–,–
CCCCCCCCCC[C@H](O)[C@H]1CC[C@H]([C@H]2CC[C@H]([C@H](O)CCCCCCCCCC[C@H](CC3=C[C@H](C)OC3=O)OC(=O)CCCCCNC(=O)CCCC[C@@H]3SC[C@@H]4NC(=O)N[C@@H]43)O2)O1,39.62,880,53,2100,2.39,–,–,–,–,–
CCCCCC[C@H](O)CCC[C@H](O)[C@H]1CC[C@H]([C@H]2CC[C@H]([C@H](O)CCCCCCCCCCCCC3=C[C@H](C)OC3=O)O2)O1 [SQUAMOCIN],3.75,19800,360,1350,0.068,78,–,–,–,–
CCCCCC[C@@H](CCC[C@H](O)[C@H]1CC[C@H]([C@H]2CC[C@H]([C@H](O)CCCCCCCCCCCCC3=C[C@H](C)OC3=O)O2)O1)OC(=O)CCCC[C@@H]1SC[C@@H]2NC(=O)N[C@@H]21,16.94,1340,49,830,0.62,–,–,–,–,–
CCCCCC[C@@H](CCC[C@H](O)[C@H]1CC[C@H]([C@H]2CC[C@H]([C@H](O)CCCCCCCCCCCCC3=C[C@H](C)OC3=O)O2)O1)OC(=O)CCCCCNC(=O)CCCC[C@@H]1SC[C@@H]2NC(=O)N[C@@H]21,0.1,> 20000,6570,680,<0.034,–,–,–,–,–
CCCCCCCCCC[C@@H](O)[C@@H]1CC[C@@H]([C@@H]2CC[C@@H]([C@H](O)CCCCCCCCCC(O)CC3=CC(C)OC3=O)O2)O1 (stereo not given in full) [BULLATACIN],21.09,3480,110,2320,0.67,–,–,–,–,–
CCCCCC[C@H](O)CCC[C@H](OC(=O)CCCC[C@@H]1SC[C@@H]2NC(=O)N[C@@H]21)[C@H]1CC[C@H]([C@H]2CC[C@H]([C@H](O)CCCCCCCCCCCCC3=C[C@H](C)OC3=O)O2)O1,1.52,> 20000,630,960,<0.048,–,–,–,–,–
CCCCCCCCCC[C@H](OC(=O)CCCCCNC(=O)CCCC[C@@H]1SC[C@@H]2NC(=O)N[C@@H]21)[C@H]1CC[C@H]([C@H]2CC[C@H]([C@H](O)CCCCCCCCCC[C@@H](O)CC3=C[C@H](C)OC3=O)O2)O1,29.46,410,37,1090,2.66,–,8,3,–,–
CCCCCCCCCC[C@H](O)[C@H]1CC[C@H]([C@H]2CC[C@H]([C@@H](CCCCCCCCCC[C@H](CC3=C[C@H](C)OC3=O)OC(=O)CCCCCNC(=O)CCCC[C@@H]3SC[C@@H]4NC(=O)N[C@@H]43)OC(=O)CCCCCNC(=O)CCCC[C@@H]3SC[C@@H]4NC(=O)N[C@@H]43)O2)O1,1.92,> 20000,1060,2040,<0.1,–,–,–,–,–
CCCCCC[C@@H](CCC[C@H](O)[C@H]1CC[C@H]([C@H]2CC[C@H]([C@@H](CCCCCCCCCCCCC3=C[C@H](C)OC3=O)OC(=O)CCCC[C@@H]3SC[C@@H]4NC(=O)N[C@@H]43)O2)O1)OC(=O)CCCC[C@@H]1SC[C@@H]2NC(=O)N[C@@H]21,0.26,> 20000,4870,1250,<0.063,–,–,–,–,–
CCCCCCCCCC[C@H](O)[C@H]1CC[C@H]([C@H]2CC[C@H]([C@H](O)CCCCCCCCCC[C@H](CC3=C[C@H](C)OC3=O)OC(=O)CCCC[C@@H]3SC[C@@H]4NC(=O)N[C@@H]43)O2)O1,2.18,> 20000,650,1420,<0.071,–,–,–,–,–
CCCCCCCCCC[C@H](O)[C@H]1CC[C@H]([C@H]2CC[C@H]([C@@H](CCCCCCCCCC[C@@H](O)CC3=C[C@H](C)OC3=O)OC(=O)CCCCCNC(=O)CCCC[C@@H]3SC[C@@H]4NC(=O)N[C@@H]43)O2)O1,6.1,> 20000,300,1830,<0.092,–,–,–,–,–
CCCCCC[C@H](O)CCC[C@H](O)[C@H]1CC[C@H]([C@H]2CC[C@H]([C@@H](CCCCCCCCCCCCC3=C[C@H](C)OC3=O)OC(=O)CCCCCNC(=O)CCCC[C@@H]3SC[C@@H]4NC(=O)N[C@@H]43)O2)O1,14.94,2410,77,1150,0.48,–,–,–,–,–
CCCCCCCCCC[C@H](OC(=O)CCCCCNC(=O)CCCC[C@@H]1SC[C@@H]2NC(=O)N[C@@H]21)[C@H]1CC[C@H]([C@H]2CC[C@H]([C@H](O)CCCCCCCCCC[C@H](CC3=C[C@H](C)OC3=O)OC(=O)CCCCCNC(=O)CCCC[C@@H]3SC[C@@H]4NC(=O)N[C@@H]43)O2)O1,26.73,750,55,1470,1.96,–,–,–,–,–
CCCCCC[C@@H](CCC[C@H](O)[C@H]1CC[C@H]([C@H]2CC[C@H]([C@@H](CCCCCCCCCCCCC3=C[C@H](C)OC3=O)OC(=O)CCCCCNC(=O)CCCC[C@@H]3SC[C@@H]4NC(=O)N[C@@H]43)O2)O1)OC(=O)CCCCCNC(=O)CCCC[C@@H]1SC[C@@H]2NC(=O)N[C@@H]21,22.57,750,35,790,1.05,–,–,–,>26,>10
CCCCCC[C@@H](CCC[C@H](OC(=O)CCCC[C@@H]1SC[C@@H]2NC(=O)N[C@@H]21)[C@H]1CC[C@H]([C@H]2CC[C@H]([C@H](O)CCCCCCCCCCCCC3=C[C@H](C)OC3=O)O2)O1)OC(=O)CCCC[C@@H]1SC[C@@H]2NC(=O)N[C@@H]21,19.62,> 20000,290,5690,<0.28,–,–,–,–,–
CCCCCC[C@H](O)CCC[C@H](OC(=O)CCCCCNC(=O)CCCC[C@@H]1SC[C@@H]2NC(=O)N[C@@H]21)[C@H]1CC[C@H]([C@H]2CC[C@H]([C@H](O)CCCCCCCCCCCCC3=C[C@H](C)OC3=O)O2)O1,0.9,> 20000,1540,1380,<0.069,–,–,–,–,–
CCCCCC[C@H](O)CCC[C@H](OC(=O)CCCCCNC(=O)CCCC[C@@H]1SC[C@@H]2NC(=O)N[C@@H]21)[C@H]1CC[C@H]([C@H]2CC[C@H]([C@@H](CCCCCCCCCCCCC3=C[C@H](C)OC3=O)OC(=O)CCCCCNC(=O)CCCC[C@@H]3SC[C@@H]4NC(=O)N[C@@H]43)O2)O1,2.47,930,340,840,0.9,–,–,–,–,–
CCCCCCCCCC[C@H](OC(=O)CCCC[C@@H]1SC[C@@H]2NC(=O)N[C@@H]21)[C@H]1CC[C@H]([C@H]2CC[C@H]([C@H](O)CCCCCCCCCC[C@@H](O)CC3=C[C@H](C)OC3=O)O2)O1,3.47,> 20000,1670,5790,<0.29,–,–,–,–,–
